Test results published in patent US9949485B2, “Use of acylsulfonamides for improving plant yield” (BAYER CROPSCIENCE AG, priority 2013, dated 2018).

Assays:
[1] = tested on: Triticum aestivum variety “AC Harvest”; assay: Growth chamber trial, post-emergence spray application, grain yield at full maturity; assay type: in vivo; settings: single active ingredient, dose rate 10 g ai/ha; for change in vivo at 10 g/ha / response vs control in vivo at 10 g/ha: Triticum aestivum, post-emergence; for change in vivo at 10 g/ha: grain yield difference, read-out: Difference (%) vs. UTC; for response vs control in vivo at 10 g/ha: grain yield relative to UTC (100.0); for Grain Yield, g/plant: spray at BBCH 56-61, slightly reduced water, average of five replicates
[2] = tested on: Triiticum aestivum seeds (TRZAS); assay: Seed treatment trial, grain yield; assay type: in vivo, Triticum aestivum; settings: for Difference (%) vs. UTC: grain yield difference; for Relative, %: grain yield relative to UTC (100.0)
[3] = single active ingredient, 1 g ai/kg seed

| Compound | change in vivo at 10 g/ha [1] | response vs control in vivo at 10 g/ha [1] | also measured |
| --- | --- | --- | --- |
| CN/C(=N\[N+](=O)[O-])NCc1cnc(Cl)s1 [Clothianidin (I-3), clothianidin] | 12.3% | 112% |  |
| CNC(=O)Nc1ccc(S(=O)(=O)NC(=O)c2ccccc2OC)cc1 [Compound (A1), N-(2-methoxybenzoyl)-4-[(methylaminocarbonyl)amino]benzenesulfonamide] | 12.3% | 112% | Grain Yield, g/plant ([2]; dose rate 0.5 g ai/kg seed): 1.90 g/plant; Difference (%) vs. UTC ([2]; 0.5 g ai/kg seed): +5.6%; Difference (%) vs. UTC [2, 3]: +3.9%; Relative, % ([2]; 0.5 g ai/kg seed): 105.6%; Relative, % [2, 3]: 103.9%; Grain Yield, g/plant ([2]; single active ingredient, dose rate 1 g ai/kg seed): 1.87 g/plant; Grain Yield, g/plant [1]: 1.19 g/plant |
| CC1COC(Cn2cncn2)(c2ccc(Oc3ccc(Cl)cc3)cc2Cl)O1 (centres unmarked) [Difenoconazole (F-105), difenoconazole] | -3.8% | 96.2% |  |
| N#Cc1nn(-c2c(Cl)cc(C(F)(F)F)cc2Cl)c(N)c1[S+]([O-])C(F)(F)F (centres unmarked) [Fipronil (I-8), fipronil] | 12.3% | 112% |  |
| O=[N+]([O-])NC1=NCCN1Cc1ccc(Cl)nc1 [Imidacloprid (I-11), imidacloprid] | 7.5% | 108% |  |
| OC(Cc1ccccc1Cl)(Cn1nc[nH]c1=S)C1(Cl)CC1 (centres unmarked) [Prothioconazole (F-124), prothioconazole] | -3.8% | 96.2% |  |
| COC(=O)N(OC)c1ccccc1COc1ccn(-c2ccc(Cl)cc2)n1 [Pyraclostrobin (F-57), pyraclostrobin] | 17% | 117% |  |
| CN1COCN(Cc2cnc(Cl)s2)/C1=N\[N+](=O)[O-] [Thiamethoxam (I-19), thiamethoxam] | 22.6% | 123% | Grain Yield, g/plant [1]: 1.30 g/plant |
| CON=C(C(=O)OC)c1ccccc1CON=C(C)c1cccc(C(F)(F)F)c1 [Trifloxystrobin (F-60), trifloxystrobin] | 5.7% | 106% |  |
